Measured values reported in patent US20180319810A1, “SUBSTITUTED BRIDGED UREA ANALOGS AS SIRTUIN MODULATORS” (GlaxoSmithKline Intellectual Property (No.2) Limited, priority 2014, published 2018).

Biological target: T1, SIRT1 (Homo sapiens, UniProt Q96EB6)
T1 sequence (Q96EB6 1-747): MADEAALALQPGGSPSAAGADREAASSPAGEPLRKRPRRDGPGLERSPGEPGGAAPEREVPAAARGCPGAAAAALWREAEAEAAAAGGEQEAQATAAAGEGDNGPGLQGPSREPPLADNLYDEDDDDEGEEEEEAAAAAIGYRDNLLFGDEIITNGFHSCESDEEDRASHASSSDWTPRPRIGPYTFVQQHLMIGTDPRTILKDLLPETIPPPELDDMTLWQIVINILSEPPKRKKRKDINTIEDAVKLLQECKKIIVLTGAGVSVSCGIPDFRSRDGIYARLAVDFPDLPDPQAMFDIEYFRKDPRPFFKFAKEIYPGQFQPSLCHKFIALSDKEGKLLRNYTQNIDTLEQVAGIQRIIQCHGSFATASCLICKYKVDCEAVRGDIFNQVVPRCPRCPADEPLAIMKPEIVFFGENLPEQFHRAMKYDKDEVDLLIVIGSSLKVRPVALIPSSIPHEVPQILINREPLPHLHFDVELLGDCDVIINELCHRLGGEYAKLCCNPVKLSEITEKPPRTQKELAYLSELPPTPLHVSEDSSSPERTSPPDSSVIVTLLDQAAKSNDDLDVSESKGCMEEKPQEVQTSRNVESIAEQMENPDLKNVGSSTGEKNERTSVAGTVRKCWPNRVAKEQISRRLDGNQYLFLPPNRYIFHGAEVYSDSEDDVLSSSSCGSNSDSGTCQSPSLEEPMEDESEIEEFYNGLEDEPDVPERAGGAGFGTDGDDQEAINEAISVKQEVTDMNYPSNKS
Experiment: Trp mass spectrometry assay of SIRT1 activation
Format: biochemical
Settings: Trp peptide Ac-R-H-K-K(Ac)-W-NH2 0.5 μM, 120 μM βNAD+, 10 nM SIRT1, 25 min, 25° C.

Compound | TRP Activity (EC1.5, concentration of compound required to increase SIRT1 activity by 50% over control) | TRP MAX RESP (percent maximum fold activation relative to control)
O=C(Nc1cncc(OC[C@@H](O)CO)c1)N1c2nc(-c3cccc(C(F)(F)F)c3)ncc2N2CCC[C@H]1C2 [Example 94, (9S)—N-(5-((S)-2,3-dihydroxypropoxy)pyridin-3-yl)-2-(3-(trifluoromethyl)phenyl)-8,9-dihydro-6H-5,9-methanopyrimido[4,5-b][1,4]diazocine-10(7H)-carboxamide] | A (EC1.5<1 μM) | A (Fold activation ≥150%)
Cc1ncc(-c2ccnc(NC(=O)N3c4nc(C(=O)N[C@H](C)C(F)(F)F)ncc4N4CC[C@H]3C4)c2)o1 [Example 115, (8S)—N9-(4-(2-methyloxazol-5-yl)pyridin-2-yl)-N2-((R)-1,1,1-trifluoropropan-2-yl)-7,8-dihydro-5,8-methanopyrimido[4,5-b][1,4]diazepine-2,9(6H)-dicarboxamide] | B (EC1.5 1-25 μM) | A (Fold activation ≥150%)
O=C(Nc1cnc(OC[C@H](O)CO)nc1)N1c2nc(-c3cccc(C(F)(F)F)c3)ncc2N2CC[C@H]1C2 [Example 49, (8S)—N-(2-((R)-2,3-dihydroxypropoxy)pyrimidin-5-yl)-2-(3-(trifluoromethyl)phenyl)-7,8-dihydro-5,8-methanopyrimido[4,5-b][1,4]diazepine-9(6H)-carboxamide] | B (EC1.5 1-25 μM) | A (Fold activation ≥150%)
Cc1ccc2c(NC(=O)N3c4nc(C(=O)NCC(F)(F)F)ncc4N4CCC[C@H]3C4)n[nH]c2n1 [Example 65, (9S)—N10-(6-methyl-1H-pyrazolo[3,4-b]pyridin-3-yl)-N2-(2,2,2-trifluoroethyl)-8,9-dihydro-6H-5,9-methanopyrimido[4,5-b][1,4]diazocine-2,10(7H)-dicarboxamide] | B (EC1.5 1-25 μM) | A (Fold activation ≥150%)
O=C(Nc1cc(OC[C@H](O)CO)ccn1)N1c2nc(-c3cccc(C(F)(F)F)c3)ncc2N2CC[C@H]1C2 [Example 33, (8S)—N-(4-((R)-2,3-dihydroxypropoxy)pyridin-2-yl)-2-(3-(trifluoromethyl)phenyl)-7,8-dihydro-5,8-methanopyrimido[4,5-b][1,4]diazepine-9(6H)-carboxamide] | B (EC1.5 1-25 μM) | A (Fold activation ≥150%)
Cc1ncc(-c2ccnc(NC(=O)N3c4nc(C(=O)NCC(F)(F)F)ncc4N4CC[C@H]3C4)c2)o1 [Example 61, (8S)—N9-(4-(2-methyloxazol-5-yl)-pyridin-2-yl)-N2-(2,2,2-trifluoroethyl)-7,8-dihydro-5,8-methanopyrimido-[4,5-b][1,4]-diazepine-2,9(6H)-dicarboxamide] | B (EC1.5 1-25 μM) | A (Fold activation ≥150%)
O=C(Nc1nccc(OC[C@H](O)CO)n1)N1c2nc(-c3cccc(C(F)(F)F)c3)ncc2N2CCC[C@H]1C2 [Example 100, (9S)—N-(4-((R)-2,3-dihydroxypropoxy)pyrimidin-2-yl)-2-(3-(trifluoromethyl)phenyl)-8,9-dihydro-6H-5,9-methanopyrimido[4,5-b][1,4]diazocine-10(7H)-carboxamide] | A (EC1.5<1 μM) | A (Fold activation ≥150%)

Other lines, results leading:

TRP Activity (EC1.5, concentration of compound required to increase SIRT1 activity by 50% over control) | TRP MAX RESP (percent maximum fold activation relative to control) | Compound
B (EC1.5 1-25 μM) | A (Fold activation ≥150%) | Cc1nc(-c2cccc(C(F)(F)F)c2)nc2c1N1CC[C@@H](C1)N2C(=O)Nc1cnc(OC[C@H](O)CO)nc1 [Example 55, (8S)—N-(2-((R)-2,3-dihydroxypropoxy)pyrimidin-5-yl)-4-methyl-2-(3-(trifluoromethyl)phenyl)-7,8-dihydro-5,8-methanopyrimido[4,5-b][1,4]diazepine-9(6H)-carboxamide]
B (EC1.5 1-25 μM) | A (Fold activation ≥150%) | O=C(Nc1cc(OC[C@@H](O)CO)ncn1)N1c2nc(-c3cccc(C(F)(F)F)c3)ncc2N2CC[C@H]1C2 [Example 29, (8S)—N-(6-((S)-2,3-dihydroxypropoxy)pyrimidin-4-yl)-2-(3-(trifluoromethyl)phenyl)-7,8-dihydro-5,8-methanopyrimido[4,5-b][1,4]diazepine-9(6H)-carboxamide]
B (EC1.5 1-25 μM) | A (Fold activation ≥150%) | Cc1ccc(-c2ncc3c(n2)N(C(=O)Nc2cccnc2)[C@H]2CCN3C2)cn1 [Example 5, (8S)-2-(6-methylpyridin-3-yl)-N-(pyridin-3-yl)-7,8-dihydro-5,8-methanopyrimido[4,5-b][1,4]diazepine-9(6H)-carboxamide]
B (EC1.5 1-25 μM) | A (Fold activation ≥150%) | O=C(Nc1ncc(OC[C@@H](O)CO)cn1)N1c2nc(-c3cccc(C(F)(F)F)c3)ncc2N2CCC[C@H]1C2 [Example 93, (9S)—N-(5-((S)-2,3-dihydroxypropoxy)pyrimidin-2-yl)-2-(3-(trifluoromethyl)phenyl)-8,9-dihydro-6H-5,9-methanopyrimido[4,5-b][1,4]diazocine-10(7H)-carboxamide]
B (EC1.5 1-25 μM) | A (Fold activation ≥150%) | Cc1nc(-c2cccc(C(F)(F)F)c2)nc2c1N1CC[C@@H](C1)N2C(=O)Nc1nccc(OC[C@H](O)CO)n1 [Example 56, (8S)—N-(4-((R)-2,3-dihydroxypropoxy)pyrimidin-2-yl)-4-methyl-2-(3-(trifluoromethyl)phenyl)-7,8-dihydro-5,8-methanopyrimido[4,5-b][1,4]diazepine-9(6H)-carboxamide]
B (EC1.5 1-25 μM) |  | CN(C)c1cc(-c2ncc3c(n2)N(C(=O)Nc2ccccn2)[C@H]2CCN3C2)ccn1 [Example 11, (8S)-2-(2-(dimethylamino)pyridin-4-yl)-N-(pyridin-2-yl)-7,8-dihydro-5,8-methano pyrimido[4,5-b][1,4]diazepine-9(6H)-carboxamide]
B (EC1.5 1-25 μM) | A (Fold activation ≥150%) | Cc1ccc2c(NC(=O)N3c4nc(C(=O)N[C@H](C)C(F)(F)F)nc(C)c4N4CC[C@H]3C4)n[nH]c2n1 [Example 60, (8S)-4-methyl-N9-(6-methyl-1H-pyrazolo[3,4-b]pyridin-3-yl)-N2-((R)-1,1,1-trifluoropropan-2-yl)-7,8-dihydro-5,8-methanopyrimido[4,5-b][1,4]diazepine-2,9(6H)-dicarboxamide]
B (EC1.5 1-25 μM) | A (Fold activation ≥150%) | C[C@@H](NC(=O)c1ncc2c(n1)N(C(=O)Nc1cccc(OC[C@H](O)CO)n1)[C@H]1CCCN2C1)C(F)(F)F [Example 78, (9S)—N10-(6-((R)-2,3-dihydroxypropoxy)pyridin-2-yl)-N2-((R)-1,1,1-trifluoropropan-2-yl)-8,9-dihydro-6H-5,9-methanopyrimido[4,5-b][1,4]diazocine-2,10(7H)-dicarboxamide]
B (EC1.5 1-25 μM) | A (Fold activation ≥150%) | O=C(Nc1cnc(OC[C@@H](O)CO)nc1)N1c2nc(-c3cccc(C(F)(F)F)c3)ncc2N2CC[C@H]1C2 [Example 53, (8S)—N-(2-((S)-2,3-dihydroxypropoxy)pyrimidin-5-yl)-2-(3-(trifluoromethyl)phenyl)-7,8-dihydro-5,8-methanopyrimido[4,5-b][1,4]diazepine-9(6H)-carboxamide]
B (EC1.5 1-25 μM) | A (Fold activation ≥150%) | O=C(Nc1nccc(OC[C@H](O)CO)n1)N1c2nc(-c3cccc(C(F)(F)F)c3)ncc2N2CC[C@H]1C2 [Example 26, (8S)—N-(4-((R)-2,3-dihydroxypropoxy)pyrimidin-2-yl)-2-(3-(trifluoromethyl)phenyl)-7,8-dihydro-5,8-methanopyrimido[4,5-b][1,4]diazepine-9(6H)-carboxamide]
